Results as given in patent publication US11571430B2, “Platinum(II) ammine selenourea complexes and methods of treating cancer” (KING FAHD UNIVERSITY OF PETROLEUM AND MINERALS, priority 2020, dated 2023).
Entries after “also recorded” stand apart in the source; their conditions may differ.

Experiments:
Assay type in all cases: cell-based, human
A549 (lung cancer cells) = assay: In vitro cytotoxicity, MTT assay, A549; settings: for IC50: 72 h incubation, A549 lung cancer cells, read-out: IC50 values against A549; for in vitro cytotoxicity in words, A549: A549, compared to cisplatin
Method: (§1) The solutions of Pt(II) complexes 1-5 and cisplatin (classical standard control) with 1.0 μM, 5.0 μM, 10.0 μM, 25.0 μM, 50.0 μM and 100.0 μM concentrations were prepared in DMEM. The cancer cells, HeLa (cervical cancer), A549 (Lung cancer) and HCT-116 (colon cancer) were seeded and maintained in quadruplicate in a 96-well tissue culture plate at 5×10^4 cells per well in 200 μL of the same medium. The cancer cells were incubated for 24 hours before the treatment. All compounds were dissolved in 50 vol % DMSO (50/50 v/v DMSO/DMEM). Therefore, DMSO was used as a negative control. The final DMSO concentration in each well, was less than 0.1%. The cancer cells were treated with the synthesized complexes (1-5) along with cisplatin and the resultant cultures were incubated for 72 h. The medium of wells was discarded and 100 μL DMEM containing MTT (3-(4,5-dimethylthiazol-2-yl)-2,5-diphenyltetrazolium bromide) (5 mg/mL) was added to the wells and incubated in a CO2 incubator at 37° C. in the dark for 4 hrs. After incubation, a purple colored formazan (artificial chromogenic dye, a product of the reduction of water insoluble tetrazolium salts e.g., MTT by dehydrogenases and reductases) in the cells is produced and appeared as dark crystals in the bottom of the wells. The medium of culture was discarded from each well carefully to avoid disruption of the monolayer. 100 μL of isopropanol was added in each well. The solution was thoroughly mixed in the wells to dissolve the formazan crystals which ultimately results into a purple solution. The absorbance of the 96-well plate was taken at 570 nm with Mithras 2LB943 against reagent blank.
(§2) The in vitro cytotoxicity of the prepared compounds (1-5) and cisplatin in DMSO was examined by the MTT assay against three human cancer cells namely, HeLa (cervical cancer cells), A549 (lung cancer cells) and HCT-116 (colon cancer cells). The survival of the cells as a function of concentration of compounds 1-5 (and compared to cisplatin) is shown in FIGS. 1A-1F, 2, 3A-3F, 4, 5A-5F, and 6. […] See Altoum A O S, Alhoshani A, Alhosaini K, et al (2017a) Synthesis, characterization and in vitro cytotoxicity of platinum(II) complexes of selenones [Pt(selenone)2Cl2]. J Coord Chem 70:1020-1031; Altoum A O S, Vančo J, Křikavová R, et al (2017b) Synthesis, structural characterization and cytotoxicity evaluation of platinum(II) complexes of heterocyclic selenones. Polyhedron 128:2-8; Ahmad S, Altoum A O S, Vančo J, et al (2018) Synthesis, crystal structure and anticancer activity of tetrakis(N-isopropylimidazolidine-2-selenone)platinum(II) chloride. J Mol Struct 1152:232-236; and Alhoshani A, Seliman A A A, Altoum A O, et al (2019) Synthesis, X-ray structure and in vitro cytotoxicity of trans-diammineplatinum(II) complexes of selenones, trans-[Pt(NH3)2(selenone)2](NO3)2. Polyhedron 158:234-240, each incorporated herein by reference in their entirety.

[1] = system: HCT-116 (colon cancer cells); assay: In vitro cytotoxicity, MTT assay, HCT-116; settings: for IC50: 72 h incubation, HCT-116 colon cancer cells, read-out: IC50 values against HCT-116; for in vitro cytotoxicity in words, HCT-116: HCT-116, compared to cisplatin
Method: as §1, §2

[2] = system: HeLa (cervical cancer cells); assay: In vitro cytotoxicity, MTT assay, HeLa; settings: for IC50: 72 h incubation, HeLa cervical cancer cells, read-out: IC50 values against HeLa; for in vitro cytotoxicity in words, HeLa: compared to cisplatin
Method: as §1, §2

C1CCNC(=[Se][Pt+2][Se]=C2NCCCCN2)NC1.N.N.O=[N+]([O-])[O-].O=[N+]([O-])[O-] [Complex 5, [Pt(NH3)2(DiapSe)2](NO3)2]
IC50 (A549 (lung cancer cells)): > 100 µM | in vitro cytotoxicity in words, A549 (A549 (lung cancer cells)): ineffective | IC50 [1]: > 100 µM | in vitro cytotoxicity in words, HCT-116 [1]: ineffective | IC50 [2]: > 100 µM | in vitro cytotoxicity in words, HeLa [2]: ineffective

N.N.[Cl][Pt][Cl] [Cisplatin, cis-diamminedichloridoplatinum(II), reference compound]
IC50 (A549 (lung cancer cells)): 12.5 µM | IC50 [1]: > 100 µM | IC50 [2]: 8.1 µM

N.N.NC(N)=[Se][Pt+2][Se]=C(N)N.O=[N+]([O-])[O-].O=[N+]([O-])[O-] [Complex 1, [Pt(NH3)2(Seu)2](NO3)2]
IC50 (A549 (lung cancer cells)): > 100 µM | in vitro cytotoxicity in words, A549 (A549 (lung cancer cells)): no activity | IC50 [1]: 5.4 µM | in vitro cytotoxicity in words, HCT-116 [1]: has activity against HCT-116 only; also recorded: excellent cytotoxic activity | IC50 [2]: > 100 µM | in vitro cytotoxicity in words, HeLa [2]: no activity

CNC(NC)=[Se][Pt+2][Se]=C(NC)NC.N.N.O=[N+]([O-])[O-].O=[N+]([O-])[O-] [Complex 2, [Pt(NH3)2(Me2Seu)2](NO3)2]
IC50 (A549 (lung cancer cells)): 54 µM | in vitro cytotoxicity in words, A549 (A549 (lung cancer cells)): almost inactive | IC50 [1]: > 100 µM | in vitro cytotoxicity in words, HCT-116 [1]: almost inactive | IC50 [2]: 12.2 µM | in vitro cytotoxicity in words, HeLa [2]: cytotoxicity comparable to cisplatin

C1CNC(=[Se][Pt+2][Se]=C2NCCCN2)NC1.N.N.O=[N+]([O-])[O-].O=[N+]([O-])[O-] [Complex 4, [Pt(NH3)2(DiazSe)2](NO3)2]
IC50 (A549 (lung cancer cells)): 6.74 µM | in vitro cytotoxicity in words, A549 (A549 (lung cancer cells)): cytotoxicity higher than cisplatin; also recorded: excellent cytotoxic activity | IC50 [1]: 7.7 µM | in vitro cytotoxicity in words, HCT-116 [1]: cytotoxicity higher than cisplatin; also recorded: excellent cytotoxic activity | IC50 [2]: 3.7 µM | in vitro cytotoxicity in words, HeLa [2]: cytotoxicity higher than cisplatin; also recorded: excellent cytotoxic activity
